Our source for the IC50 and IC90 values is PubChem BioAssay AID434987 (Southern Research Specialized Biocontainment Screening …, 2010).

The structures appear in SMILES notation. pIC50: −log10 of the molar value. Calls of active or inactive are those of the source. The rule behind the calls is not given here.

The test system of the test is M. tuberculosis H37Rv growth inhibition with meropenem. The experiment in a line: dose response, H37Rv, with and without meropenem (AID 434987).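 Note: growth over 7 days at 37 °C before Alamar Blue read on day 9.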
Setting [1] is: M. tuberculosis H37Rv growth inhibition, measured here: IC50 without meropenem.
Where [2] appears, read: M. tuberculosis H37Rv growth inhibition, measured here: IC90 without meropenem.
Where [3] appears, read: measured here: IC90 with meropenem.

Broadly, the IC50 is the point on the concentration scale where inhibition reaches its midpoint. Usually pIC50 stands for −log10 of the IC50, conventionally taken in molar units. What is called IC90 is the point of the concentration-response curve where the effect stands at 90%.

For `CC(C)(C)[C@@H]1C=C(C(=O)Nc2ccccc2)O[C@H](OCc2ccc(CO)cc2)C1`, the IC50 is 75 µM (inactive). This compound also had a pIC50 under setting [1] of 4.03. Under setting [2], the concentration for an effect of 90% (IC90) was > 100 µM. Also, the IC90 under setting [3] was > 100 µM.
For the compound `CCOc1ccc(S(=O)(=O)n2nnc3ccccc32)cc1C(C)C`, the IC50 is > 100 µM (inactive). Further, the pIC50 under setting [1] is < 4.00. For the same compound, under setting [2], the IC90 is > 100 µM. For the same compound, under setting [3], the IC90 was > 100 µM.
As for `CC1(C)CN=C(Nc2nc3ccccc3s2)S1`, the pIC50 is 4.54. In addition, under setting [1], the pIC50 is < 4.00. For the same compound, the IC90 under setting [2] was > 100 µM. Also, the IC90 under setting [3] is > 50 µM.
In the same order, the values of `COc1ccccc1CNC(=O)COC(=O)C1=COCCO1` are 4.73, 4.17, > 100 µM and > 100 µM.
On to `CC(C)CN(C(=O)CN1CCN(S(=O)(=O)c2ccccc2)CC1)c1c(N)n(CC(C)C)c(=O)[nH]c1=O`, for which the IC50 is > 100 µM (inactive). The pIC50 under setting [1] is < 4.00. Besides, under setting [2], the IC90 was > 100 µM. Moreover, the IC90 under setting [3] was > 100 µM.
`COc1ccc(CCNCc2csc3nc4ccccc4n23)cc1OC`: the IC50 is 50 µM (inactive). The compound further showed a pIC50 under setting [1] of 4.03. Moreover, under setting [2], the IC90 was > 100 µM. The IC90 under setting [3] is > 100 µM.
For `Cc1ccc(/C=C2/SC(=S)N(CC(=O)Nc3ncc(Cc4ccc(C)cc4)s3)C2=O)cc1`, the IC50 is > 100 µM (inactive). For the same compound, under setting [1], the negative-log IC50 (pIC50) is < 4.00. In addition, under setting [2], the IC90 was > 100 µM. Further, the IC90 under setting [3] was > 100 µM.
On to `CSc1nnc(C)c(/C=C/Nc2ccc(Cl)cc2)n1`, for which the IC50 is 94 µM (inactive). Moreover, under setting [1], the pIC50 was 4.02. For the same compound, the concentration for an effect of 90% (IC90) under setting [2] was > 100 µM. For the same compound, the IC90 under setting [3] was > 100 µM.
For `Cc1cccc(Cn2c(N3CCN(c4ccccc4)CC3)nc3c2c(=O)n(C)c(=O)n3C)c1`, the IC50 was > 100 µM (inactive). Further, the pIC50 under setting [1] was < 4.00. The IC90 under setting [2] was > 100 µM. The IC90 under setting [3] was > 100 µM.
Turning to `CCOC(=O)c1ccc(NC(=O)Cc2coc3cc4c(cc23)CCC4)cc1`, the IC50 is > 100 µM (inactive). Moreover, the pIC50 under setting [1] was < 4.00. Under setting [2], the IC90 is > 100 µM. Moreover, the IC90 under setting [3] is > 100 µM.
Take `Cc1cc(C)c2c(N)c(S(=O)c3ccc(C(C)(C)C)cc3)sc2n1` (stereo not drawn): the IC50 is > 100 µM (inactive). Further, under setting [1], the negative-log IC50 (pIC50) was < 4.00. Also, the IC90 under setting [2] is > 100 µM. The IC90 under setting [3] is > 100 µM.
In the case of `Cc1cc(C)cc(SCc2noc(C(=O)NC(C)C)c2C(=O)O)c1`, the IC50 is 25.1 µM (inactive). For the same compound, under setting [1], the pIC50 is 4.34. Under setting [2], the IC90 came out at 50.7 µM. Further, the IC90 under setting [3] came to 27.3 µM.
Turning to `CCOc1cc(/C=N\Nc2ccc([N+](=O)[O-])cc2)ccc1OCC(=O)Nc1ccc(C)c(C)c1`, the pIC50 was 5.22. Under setting [1], the pIC50 was < 4.00. Under setting [2], the IC90 was > 100 µM. The IC90 under setting [3] is > 12.5 µM.
On to `Cc1ncc(CCl)c2c1OC(C)(C)OC2`, for which the IC50 was 42.5 µM (inactive). The pIC50 under setting [1] was 4.05. In addition, the IC90 under setting [2] was > 100 µM. Besides, the IC90 under setting [3] was > 100 µM.
Regarding `COc1ccc(OC(=O)c2cccc([N+](=O)[O-])c2)c(C(=O)/C=C/c2cccs2)c1`, the pIC50 is 4.56. The pIC50 under setting [1] is 4.17. Moreover, the IC90 under setting [2] is > 100 µM. Also, the IC90 under setting [3] was > 100 µM.
Regarding `O=C(CSc1ccc([N+](=O)[O-])cn1)Nc1ccc(N2CCOCC2)cc1`, the pIC50 was 5.32. Further, the pIC50 under setting [1] is 4.75. For the same compound, the IC90 under setting [2] is > 100 µM. The IC90 under setting [3] is > 100 µM.
Turning to `COc1ccc([N+](=O)[O-])cc1NS(=O)(=O)c1ccc(C(=O)N2CCCC2)cc1`, the IC50 was > 100 µM (inactive). Also, under setting [1], the pIC50 was < 4.00. Also, the 90% effect concentration (IC90) under setting [2] is > 100 µM. Further, under setting [3], the IC90 was > 100 µM.
For `CC(C)c1ccc(/C=C/C(=O)NC2CCCCC2)cc1`, the pIC50 was 4.42. Besides, the negative logarithm of the IC50 (pIC50) under setting [1] is < 4.00. Besides, under setting [2], the concentration for an effect of 90% (IC90) was > 100 µM. For the same compound, the IC90 under setting [3] was > 100 µM.
As to `COc1cc(C(=O)N/N=C/c2ccc(OC(=O)c3cccc(C)c3)cc2)ccc1O`, the pIC50 is 5.34. The compound also gave a pIC50 under setting [1] of 4.11. In addition, the IC90 under setting [2] is > 100 µM. This compound registered a concentration for an effect of 90% (IC90) under setting [3] of 53.4 µM.
Regarding `COc1ccc(CNC(=O)c2sc3nc4c(c(C(F)(F)F)c3c2N)CCC4)cc1`, the IC50 is 7.76 µM (inactive). For the same compound, under setting [1], the pIC50 was 4.98. The IC90 under setting [2] was > 25 µM. In addition, under setting [3], the IC90 is > 100 µM.
For `O=C1NC(=O)N(Cc2ccco2)C(=O)/C1=C\c1ccc(-c2ccc(F)cc2)o1`, the IC50 is 80.7 µM (inactive). This compound gave a pIC50 under setting [1] of 4.07. Under setting [2], the IC90 is > 100 µM. For the same compound, under setting [3], the 90% effect concentration (IC90) was > 100 µM.
Regarding `COc1cc(CNCCO)cc(Br)c1OCc1ccccc1Cl`, the IC50 was 46.2 µM (inactive). The same compound showed a pIC50 under setting [1] of 4.32. Under setting [2], this compound came in with an IC90 of 53.7 µM. Under setting [3], this compound displayed an IC90 of 52.7 µM.
